{"source": "patent US20080081021A1", "about": "“Manganese-enhanced magnetic resonance imaging of neurons using electrical stimulation” (priority 2006, published 2008)", "key": {"[1]": {"test_system": "rat spinal cord (gray matter, white matter, cortical spinal tract)", "settings": "for *T1CST: cortical spinal tract in spinal cord; for *T1CST / T1GM / T1WM: 1 M MnCl2 0.2 μL bilateral intracortical, 9.4 T; for T1GM: gray matter of spinal cord, mean±SD, four rats; for T1WM: white matter of spinal cord", "experimental": "(§1) The experiments were conducted on twelve Sprague-Dawley rats weighing between 300 and 350 g under a protocol approved by the University of Kansas Medical Center Institutional Animal Care and Use Committee. Six rats were studied without electrical stimulation in the cortex and served as the control group. The remaining six rats formed the stimulation group.\nThe syringe was mounted on a micropositioner attached to a stereotaxic frame. The tip of the glass pipette was lowered perpendicular to the brain surface at the center of the first burr hole and inserted into the cortex through the exposed dura one millimeter below the pial surface. The syringe was emptied slowly to deliver 0.2 μL of the solution over a period of five minutes. To prevent backflow of solution, the pipette was left in place for another five minutes prior to withdrawal. This procedure was repeated for the contralateral motor area through the second burr hole.\nTo eliminate this problem, the burr holes in the skull of the rat from the stimulation group were first carefully drained of fluid. Electrical stimulation was then applied through a 1 mm diameter stainless steel electrode with the titanium screw serving as reference. The electrode was connected to a DS7 Digitimer constant current stimulator (Digitimer Ltd., Hertfordshire, England) and lowered through the first burr hole on the same side as the screw until it touched to dura. A Grass S48 stimulator (Grass Medical Instruments, Quincy, Mass.) generated the stimulus pulse sequence used to externally trigger the constant current stimulator. Trains of biphasic stimuli (each phase 0.2 ms, negative first) were applied at 100 Hz for an “on” period of 5 seconds followed by an “off” period of 5 seconds. […] Once threshold was determined, stimulation was applied at approximately twice the threshold for 90 minutes. If the strength of the evoked movement declined noticeably, frequency and current values were increased to maintain a constant motor response. These procedures were repeated for the opposite cortex through a second burr hole. With these settings, the total stimulation time was 180 minutes, 90 minutes for each side of the cortex. Immediately after stimulation, the electrodes were removed, and the skin was closed tightly with suture. The animal was then left to recover in its cage.\nThe animals were anesthetized using spontaneous inhalation of 4% isoflurane for induction, followed by a mixture of 1.5% isoflurane, 30% oxygen, and air delivered through a nose mask. The rat's head was stabilized on a Plexigas holder and positioned into a 6 cm inner diameter volume coil for MRI scanning on a 9.4 T horizontal Varian scanner (Varian Inc., Palo Alto, Calif.). While in the scanner, the physiological condition of the rat was monitored using ECG, respiratory and temperature probes that were connected to an MR-compatible small animal monitoring and gating system (Model 1025, SA Instruments, Inc., Stony Brook, N.Y.). The rat's temperature was kept at about 37° C. by circulating warm air with 40% humidity using a 5 cm diameter plastic tube fitted to the back door of the magnet bore.\nThe resulting data set consisted of axial images acquired independently at eight different TR values: 50, 100, 250, 500, 750, 2000, 3500, and 6000 ms with averages=10, 6, 6, 2, 2, 2, 2 and 2, respectively, and TE=12 ms. The other acquisition parameters were image matrix=128×128, field-of-view (FOV)=23×23 mm^2 and slice thickness=4 mm. The acquired data were analyzed quantitatively to produce a parametric T1 map of the spinal cord by following the procedures described previously in Bilgen et al., Ex vivo magnetic resonance imaging of rat spinal cord at 9.4 T, Magn. Reson. Imaging 23:601-605 (2005).\nT1-maps were produced for four rats from each of the stimulated and control groups."}, "cortical spinal tract": {"test_system": "cortical spinal tract", "settings": "24 hours after injection", "experimental": "as §1\nThe syringe was mounted on a micropositioner attached to a stereotaxic frame. The tip of the glass pipette was lowered perpendicular to the brain surface at the center of the first burr hole and inserted into the cortex through the exposed dura one millimeter below the pial surface. […]\nTo eliminate this problem, the burr holes in the skull of the rat from the stimulation group were first carefully drained of fluid. […] Once threshold was determined, stimulation was applied at approximately twice the threshold for 90 minutes. […]\nThe animals were anesthetized using spontaneous inhalation of 4% isoflurane for induction, followed by a mixture of 1.5% isoflurane, 30% oxygen, and air delivered through a nose mask. […] While in the scanner, the physiological condition of the rat was monitored using ECG, respiratory and temperature probes that were connected to an MR-compatible small animal monitoring and gating system (Model 1025, SA Instruments, Inc., Stony Brook, N.Y.). […]"}, "[2]": {"settings": "control rats without electrical stimulation"}}, "note": "Like-named read-outs stand apart in the source and are kept apart here."}
{"substance": "manganese chloride", "values": [{"measurement": "*T1CST", "setting": "[1]; [2]", "result": "1.43 ± 0.09", "unit": "s"}, {"measurement": "*T1CST", "setting": "[1]; electrically stimulated rats", "result": "1.24 ± 0.08", "unit": "s"}, {"measurement": "T1GM", "setting": "[1]; [2]", "result": "1.55 ± 0.05", "unit": "s"}, {"measurement": "T1GM", "setting": "[1]; electrically stimulated rats", "result": "1.54 ± 0.06", "unit": "s"}, {"measurement": "T1 in the cortical spinal tract shorter in electrically stimulated rats compared to controls", "setting": "[1]; stimulated vs non-stimulated rats, both given MnCl2", "result": "about 20%"}, {"measurement": "T1WM", "setting": "[1]; [2]", "result": "1.53 ± 0.06", "unit": "s"}, {"measurement": "T1WM", "setting": "[1]; electrically stimulated rats", "result": "1.51 ± 0.07", "unit": "s"}, {"measurement": "manganese enhancement of the cortical spinal tract", "setting": "cortical spinal tract; non-stimulated rat", "result": "fades away as the cortical spinal tract approaches the spinal cord"}, {"measurement": "labeling of the cortical spinal tract in the spinal cord", "setting": "cortical spinal tract; with electrical stimulation of the cortex", "result": "more robust labeling of the cortical spinal tract in the spinal cord"}]}
